In data set [1] the test system is KYSE450. As to the kind of experiment: Evaluation of cell death morphology by light microscopy. The class given is cell-based, human. The protocol: (§1) Morphological features of cells treated with 5-fluorouracil (5-FU)/cisplatin, without and with 3-MA, LY294002, Bafilomycin, Lithium chloride, rapamycin or HA14-I were examined by light microscopy. Morphologies of treated cells were examined 24 and 48 hours post treatment, treatment times are referred to in figure legends. Aliquots of vehicle control and drug treated cells were cytospun onto glass slides and stained with Rapi-Diff (Braidwood laboratories, UK). The extent of apoptotic and non-apoptotic cell death was determined by counting the cells in at least three fields of view per slide, with an average of ˜100 cells per field. Apoptotic cell death is characterized by the presence of two or more of the following morphological features: cell shrinkage, chromatin condensation, DNA degradation and fragmentation into ‘apoptotic bodies’, within an intact plasma membrane. Autophagic cell death was identified by clear elevation of cytoplasmic vesicles, loss of cytoplasmic material, pyknosis of the nuclear material and an intact nuclear membrane. Cytospin images are representative of at least three independent experiments.

The subject of data set [2] is OE21. The method, then: as §1
Data set [3] deals with OE21. As to the kind of experiment: MTT viability and recovery assay. The class given is cell-based, human. The protocol: (§2) Viability of esophageal cells was assessed using the MTT reduction assay. Cells are seeded at 2×10^4 (OE33/OE19) and 1×10^4 (OE21/KYSE450) cells per cm^2, treated for 48-96 hours and incubated for an additional 60 minutes at 37° C. in 0.5 mg/ml MTT dye. Viable, metabolizing cells reduce MTT dye, producing a dark formazan product, with absorbance read at 562 nm, reference wavelength 620 nm. To assess recovery, at 48 hours post treatment, in replicate plates (identical seeding & treatment times), all drugs were removed, culture medium was replaced, and these cells were cultured for a further 48-96 hours, to monitor their ability to recover and MTT assay was repeated.
(§3) In analysis of MTT data, values are presented as the Mean absorbance+/−Standard Error of the Mean (S.E.M) for four independent experiments. Statistical analysis was performed with paired Student's t-test. Values of p<0.05 were considered statistically significant. Asterisks indicate the level of significance.

Data set [4] relates to KYSE450. The class given is cell-based, human. The protocol: as §2, §3
In a further data set the test system is LC3 in OE19 cells. As to the kind of experiment: LC3 / GFP-LC3 processing and distribution (Western blot, fluorescence microscopy). The class given is cell-based, human. The conditions noted are these: 10 nM bafilomycinA1, 24 and 48 hours. The method, then:
(§4) Total cellular protein extracts were prepared by scraping the cells into modified RIPA buffer (50 mM Tris HCl (pH 7.4), 150 mM NaCl, 0.25% Sodium deoxycholate, 1% Igepal, protease inhibitors 1 mM EDTA, 1× Pefabloc, 1× protease inhibitor cocktail, 1 mM Na3VO4, 1 mM NaF). All protein samples were separated by SDS-PAGE (10/12%) and electrophoretically transferred onto nitrocellulose membrane. All primary antibodies were incubated overnight at 4° C.: anti-phospho mTOR (Ser 2448) and anti-p70^S6K (Thr 389) (Cell Signaling Technologies, UK), anti-Beclin-1 (BD Biosciences, UK) and anti-LC3 (Medical & Biological Laboratories, Japan). The membranes were incubated with the relevant horseradish peroxidase conjugated secondary antibodies (DakoCytomation, Dublin) and detected by chemiluminescence (ECL Amersham, UK).
(§5) To visualize and quantify the formation of autophagic vesicles, the green fluorescent protein (GFP)-LC3 (pEGFP-LC3) expression vector, kindly supplied by Dr. T. Yoshimori (National Institute of Genetics, Japan) was used. Cells were transiently transfected with the Amaxa electroporation system according to the supplier's protocol. Twenty-four hours post transfection, cells were treated with 5-FU and/or Cisplatin, fixed in 4% paraformaldehyde in PBS and transferred onto slides using a non-fluorescent fixative for analysis by fluorescence microscopy. Alternatively, Western Blot analysis was used to assess the expression and processing of LC3. […] The membrane sequestered, lipid-conjugated form of LC3-II remains with the autophagosome membrane after the vesicle has formed, and levels of both isoform are detected by Western Blot. Transfection efficiency was consistent for a given cell line, OE33 and KYSE450 cell lines (˜60-70%) compared to OE19 and OE21 cell lines (˜30%).
(In general: In western blotting, separated proteins are transferred to a membrane and probed.)

The subject of the next data set is LC3 in KYSE450 cells. Described as above. Particulars: 10 nM, 24 and 48 hours post treatment. The class given is cell-based, human. The protocol: as §4, §5
The subject of another data set is LC3 in OE33 cells. Described as above. The conditions noted are these: 10 nM, 24 and 48 hours post treatment. The class given is cell-based, human. The method, then: as §4, §5

Like-named read-outs stand apart in the source and are kept apart here. Residues, ends and D or L forms follow the SMILES beside them. *: point of attachment. Cbz = O=C(OCc1ccccc1)*; CH2F = FC*

For the molecule `Cn1cnc(N)c2ncnc1-2` [3-MA, 3-Methyladenine], the morphology result in the data set with KYSE450 [1] (3-MA (10.0 μM) without and with 5-FU (50 μM), 48 hours) is “did not significantly affect morphology”; in the data set on OE21 [2] (3-MA without and with 5-FU (30 μM), 48 hours), “did not significantly affect morphology”.

In the case of `CO/C1=C\C(C)=C\[C@@H](C)[C@@H](O)[C@@H](C)C/C(C)=C/C=C/[C@H](OC)[C@@H]([C@@H](C)[C@@H](O)[C@H](C)[C@@]2(O)C[C@@H](O)[C@H](C)[C@@H](C(C)C)O2)OC1=O` [Bafilomycin, Bafilomycin A1], the morphology entry in the data set on KYSE450 [1] (Bafilomycin 10.0 nM alone or with 5-FU (50 μM)) and with OE21 [2] (Bafilomycin 1.0 nM alone or with 5-FU (30 μM)) was “significant levels of vesicular accumulation” in each case. Also, the “cell death (MTT)” value in the data set on OE21 [3] is “induced significant cell death”. Moreover, the “cytotoxicity (MTT)” value with KYSE450 [4] (Bafilomycin 100 nM) is “cytotoxic alone”. Besides, the “viability (MTT)” value with KYSE450 [4] (Bafilomycin 10-100 nM) is recorded as “reduction in MTT”. For the same molecule, the “GFP-LC3 distribution (fluorescence microscopy)” value in the data set with LC3 in OE19 cells was “accumulation of GFP-LC3 tagged autophagosomes”. The “levels of endogenous LC3 (Western blot)” value with LC3 in KYSE450 cells and with LC3 in OE33 cells was “induced an accumulation in the levels of endogenous LC3” each time.

As for `CCOC(=O)C1=C(N)Oc2ccc(Br)cc2C1C(C#N)C(=O)OCC` (centres unmarked) [HA14-1], the morphology result with KYSE450 [1] (HA14-1 (5 μM) and/or 5-FU (50 μM), 24 hours) was “rarely causes apoptosis”; in the data set with KYSE450 [1] (HA14-1 (5 μM) and/or 5-FU (50 μM), 24 hours, listed as HA14-I) it was “the induction of apoptosis is observed, but at very low levels”; in the data set on KYSE450 [1] (HA14-1 (10 μM) without and with 5-FU (50 μM), 24 hours), “the induction of apoptosis is apparent, but again at low levels”; in the data set with KYSE450 [1] (HA14-1 (20 μM), 24 hours), “rarely causes apoptosis”; in the data set on KYSE450 [1] (HA14-1 (20 μM), 24 hours, listed as HA14-I) it was “the induction of apoptosis is apparent, but again at low levels”; with KYSE450 [1] (HA14-1 (30 μM), 24 hours) it was “apoptotic cells are visible”. Besides, the morphology entry in the data set on KYSE450 [1] (HA14-1 (30 μM), 24 hours, listed as HA14-I) was “induced clear levels of apoptotic cell death”; with KYSE450 [1] (HA14-1 (30 μM), 48 hours), “apoptotic cells are visible”; in the data set with KYSE450 [1] (HA14-1 (30 μM), 48 hours, listed as HA14-I), “induced clear levels of apoptotic cell death”.

`COC(=O)C[C@H](NC(=O)[C@H](C)NC(=O)[C@@H](NC(=O)OCc1ccccc1)C(C)C)C(=O)CF` [zVAD-fmk] (Cbz-Val-Ala-Asp(OMe)-CH2F): the “inhibition of apoptosis induced by 5-FU” value in the data set with OE21 [2] (zVAD-fmk (25 μM) for 2 hours prior to 5-FU treatment) is given as “completely inhibited”.

Values taken from patent publication US9155761B2, “Method for the treatment of cancer” (UNIVERSITY COLLEGE CORK, NATIONAL UNIVERSITY OF IRELAND, …, priority 2009, dated 2015).
